Data published in patent publication US20220062240A1, “METHODS OF TREATING CANCER USING A CLK INHIBITOR” (BioSplice Therapeutics, Inc., priority 2018, published 2022).
Where two headings read alike, the source gives them in different places. Blank lines part the entries; values can stand above or below the molecule they belong to.

Assays:
Assay type in all cases: cell-based
BT-549 = assay: CellTiter-Glo Viability Assay, breast cancer; conditions: Homo sapiens, 96 h; BT-549, breast cancer, four days; read-out: EC50
Experimental: (§1) Fifty-one human cancer cell lines (breast cancer (8 cell lines), colorectal cancer (6 cell lines), haematopoietic & lymphoid tumors (13 cell lines), liver cancer (3 cell lines), lung cancer (4 cell lines), ovarian cancer (4 cell lines), pancreatic cancer (8 cell lines), and prostate cancer (5 cell lines)) were tested to determine the effects of representative compounds of Formulas (I)-(XII) on cellular proliferation, as evaluated using the CellTiter-Glo® Viability Assay.
(§2) For the Cell Viability Assays, cells were plated at 300-3,000 cells/well in 384-well plates in their respective media containing 1% Penicillin-Streptomycin and incubated for four days at 37° C. and 5% CO2. Twenty-eight replicates of DMSO-treated cells served as controls and cells treated with compound were performed in duplicate.
(§3) After incubation, 10 μL of CellTiter-Glo® (Promega) was added to each well allowed to incubate for approximately 12 minutes. This reagent results in cell lysis and generation of a luminescent signal proportional to the amount of ATP present. The amount of ATP is directly proportional to the number of metabolically active, viable cells present in culture. The CellTiter-Glo® Assay generates a luminescent signal, produced by the luciferase reaction (Promega.com).
(§4) After incubation, the luminescence signal was read using an EnVision™ Multilabel Plate Reader (Perkin Elmer). Dose-response curves were generated and EC50 concentration values were calculated using Dotmatics' Studies Software (Bishops Stortford, UK).

CAMA1 = assay: CellTiter-Glo Viability Assay, breast cancer; conditions: Homo sapiens, CAMA-1, 96 h; CAMA1, breast cancer, four days; read-out: EC50
Experimental: as §1, §2, §3, §4

DU4475 = assay: CellTiter-Glo Viability Assay, breast cancer; conditions: Homo sapiens, DU-4475, 96 h; DU4475, breast cancer, four days; read-out: EC50
Experimental: as §1, §2, §3, §4

HCC1599 = assay: CellTiter-Glo Viability Assay, breast cancer; conditions: Homo sapiens, 96 h; HCC1599, breast cancer, four days; read-out: EC50
Experimental: as §1, §2, §3, §4

MCF7 = assay: CellTiter-Glo Viability Assay, breast cancer; conditions: Homo sapiens, 96 h; MCF7, breast cancer, four days; read-out: EC50
Experimental: as §1, §2, §3, §4

MDA-MB-231-Luc = assay: CellTiter-Glo Viability Assay, breast cancer; conditions: Homo sapiens, 96 h; MDA-MB-231-Luc, breast cancer, four days; read-out: EC50
Experimental: as §1, §2, §3, §4

T47D = assay: CellTiter-Glo Viability Assay, breast cancer; conditions: Homo sapiens, 96 h, breast cancer, four days, read-out: EC50
Experimental: as §1, §2, §3, §4

ZR-75-1 = assay: CellTiter-Glo Viability Assay, breast cancer; conditions: Homo sapiens, 96 h; ZR-75-1, breast cancer, four days; read-out: EC50
Experimental: as §1, §2, §3, §4

all 50 cell lines = assay: CellTiter-Glo Viability Assay, average across all cell lines; conditions: Homo sapiens; across all 50 cell lines; read-out: average EC50 for inhibition of cancer cell proliferation
Experimental: as §1, §2, §3, §4

[1] = tested on: colorectal cancer (6 cell lines); assay: CellTiter-Glo Viability Assay, colorectal cancer; conditions: Homo sapiens, inhibition of cancer cell proliferation
Experimental: as §1, §2, §3, §4

[2] = tested on: haematopoietic & lymphoid tumors (13 cell lines); assay: CellTiter-Glo Viability Assay, haematopoietic & lymphoid tumors; conditions: Homo sapiens, inhibition of cancer cell proliferation
Experimental: as §1, §2, §3, §4

[3] = tested on: liver cancer (3 cell lines); assay: CellTiter-Glo Viability Assay, liver cancer; conditions: Homo sapiens, inhibition of cancer cell proliferation
Experimental: as §1, §2, §3, §4

[4] = tested on: lung cancer (4 cell lines); assay: CellTiter-Glo Viability Assay, lung cancer; conditions: Homo sapiens, inhibition of cancer cell proliferation
Experimental: as §1, §2, §3, §4

[5] = tested on: ovarian cancer (4 cell lines); assay: CellTiter-Glo Viability Assay, ovarian cancer; conditions: Homo sapiens, inhibition of cancer cell proliferation
Experimental: as §1, §2, §3, §4

[6] = tested on: pancreatic cancer (8 cell lines); assay: CellTiter-Glo Viability Assay, pancreatic cancer; conditions: Homo sapiens, inhibition of cancer cell proliferation
Experimental: as §1, §2, §3, §4

[7] = tested on: prostate cancer (5 cell lines); assay: CellTiter-Glo Viability Assay, prostate cancer; conditions: Homo sapiens
Experimental: as §1, §2, §3, §4

[8] = HCT-116, HCT116 cell line, read-out: Colorectal cancer, EC50 (μM) HCT116
[9] = HT-29, HT29 cell line, read-out: Colorectal cancer, EC50 (μM) HT29
[10] = SW-620, SW620 cell line, read-out: Colorectal cancer, EC50 (μM) SW620
[11] = DLD-1 cell line, read-out: Colorectal cancer, EC50 (μM) DLD-1
[12] = SW48 cell line, read-out: Colorectal cancer, EC50 (μM) SW48
[13] = SW480 cell line, read-out: Colorectal cancer, EC50 (μM) SW480
[14] = DND41, DND-41 cell line, read-out: Haematopoietic & Lymphoid tumors, EC50 (μM) DND-41
[15] = MV4-11, MV-4-11 cell line, read-out: Haematopoietic & Lymphoid tumors, EC50 (μM) MV-4-11
[16] = Rec1, REC-1 cell line, read-out: Haematopoietic & Lymphoid tumors, EC50 (μM) REC-1
[17] = SU-DHL-4, SUDHL4 cell line, read-out: Haematopoietic & Lymphoid tumors, EC50 (μM) SUDHL4
[18] = HL-60 cell line, read-out: Haematopoietic & Lymphoid tumors, EC50 (μM) HL-60
[19] = JM1 cell line, read-out: Haematopoietic & Lymphoid tumors, EC50 (μM) JM1
[20] = JURKAT, Clone E6-1 cell line, read-out: Haematopoietic & Lymphoid tumors, EC50 (μM) JURKAT, Clone E6-1
[21] = JeKo-1 cell line, read-out: Haematopoietic & Lymphoid tumors, EC50 (μM) JeKo-1
[22] = KASUMI-1 cell line, read-out: Haematopoietic & Lymphoid tumors, EC50 (μM) KASUMI-1
[23] = Loucy cell line, read-out: Haematopoietic & Lymphoid tumors, EC50 (μM) Loucy
[24] = MOLT-4 cell line, read-out: Haematopoietic & Lymphoid tumors, EC50 (μM) MOLT-4
[25] = TF-1 cell line, read-out: Haematopoietic & Lymphoid tumors, EC50 (μM) TF-1
[26] = TOLEDO cell line, read-out: Haematopoietic & Lymphoid tumors, EC50 (μM) TOLEDO
[27] = SNU-398, SNU398 cell line, read-out: Liver cancer, EC50 SNU398
[28] = HEPG2 cell line, read-out: Liver cancer, EC50 HEPG2
[29] = PLC/PRF/5 cell line, read-out: Liver cancer, EC50 PLC/PRF/5
[30] = A-427, A427 cell line, read-out: Lung cancer, EC50 (μM) A427
[31] = HCC78, HCC-78 cell line, read-out: Lung cancer, EC50 (μM) HCC-78
[32] = NCI-H460 cell line, read-out: Lung cancer, EC50 (μM) NCI-H460
[33] = NCI-H522 cell line, read-out: Lung cancer, EC50 (μM) NCI-H522
[34] = PA-1, PA1 cell line, read-out: Ovarian cancer, EC50 (μM) PA1
[35] = TOV112D, TOV-112D cell line, read-out: Ovarian cancer, EC50 (μM) TOV-112D
[36] = OV-90 cell line, read-out: Ovarian cancer, EC50 (μM) OV-90
[37] = OVCAR-3 cell line, read-out: Ovarian cancer, EC50 (μM) OVCAR-3
[38] = BXPC-3, BxPC3 cell line, read-out: Pancreatic cancer, EC50 BxPC3
[39] = CAPAN-1, Capan1 cell line, read-out: Pancreatic cancer, EC50 Capan1
[40] = Capan-2, Capan2 cell line, read-out: Pancreatic cancer, EC50 Capan2
[41] = MIA PaCa-2 cell line, read-out: Pancreatic cancer, EC50 MIA PaCa-2
[42] = PANC 05.04 cell line, read-out: Pancreatic cancer, EC50 PANC 05.04
[43] = PANC-1 cell line, read-out: Pancreatic cancer, EC50 PANC-1
[44] = UPAFII cell line, read-out: Pancreatic cancer, EC50 UPAFII
[45] = DU-145, read-out: Prostate cancer EC50 Du-145
[46] = PC-3, PC3 cell line, inhibition of cancer cell proliferation, read-out: Prostate cancer EC50 PC3
[47] = 22Rv1 cell line, inhibition of cancer cell proliferation, read-out: Prostate cancer EC50 22Rv1
[48] = LNCap clone FGC cell line, inhibition of cancer cell proliferation, read-out: Prostate cancer EC50 LNCap clone FGC
[49] = VCaP (Sigma) cell line, inhibition of cancer cell proliferation, read-out: Prostate cancer EC50 VCaP (Sigma)

EC50 (BT-549): 75 nM
EC50 (CAMA1): 167 nM
EC50 (DU4475): 57 nM
EC50 (HCC1599): 85 nM
EC50 (MCF7): 794 nM
EC50 (MDA-MB-231-Luc): 153 nM
EC50 (T47D): 167 nM
EC50 (ZR-75-1): 145 nM
EC50 [1, 8]: 0.056 µM
EC50 [1, 9]: 1.28 µM
EC50 [1, 10]: 0.041 µM
EC50 [1, 11]: 0.136 µM
EC50 [1, 12]: 0.049 µM
EC50 [1, 13]: 0.042 µM
EC50 [2, 14]: 0.031 µM
EC50 [2, 15]: 0.005 µM
EC50 [2, 16]: 0.109 µM
EC50 [2, 17]: 0.036 µM
EC50 [2, 18]: 0.121 µM
EC50 [2, 19]: 0.026 µM
EC50 [2, 20]: 0.17 µM
EC50 [2, 21]: 0.017 µM
EC50 [2, 22]: 0.058 µM
EC50 [2, 23]: 0.041 µM
EC50 [2, 24]: 0.254 µM
EC50 [2, 25]: 0.108 µM
EC50 [2, 26]: 0.022 µM
EC50 [3, 27]: 21 nM
EC50 [3, 28]: 377 nM
EC50 [3, 29]: 1770 nM
EC50 [4, 30]: 0.04 µM
EC50 [4, 31]: 0.225 µM
EC50 [4, 32]: > 3.5 µM
EC50 [4, 33]: 0.04 µM
EC50 [5, 34]: 0.147 µM
EC50 [5, 35]: 0.065 µM
EC50 [5, 36]: 0.532 µM
EC50 [5, 37]: 0.037 µM
EC50 [6, 38]: 361 nM
EC50 [6, 39]: 569 nM
EC50 [6, 40]: 94 nM
EC50 [6, 41]: 41 nM
EC50 [6, 42]: 453 nM
EC50 [6, 43]: 2680 nM
EC50 [6, 44]: 259 nM
EC50 [7, 45]: 98 nM
EC50 [7, 46]: 55 nM
EC50 [7, 47]: 117 nM
EC50 [7, 48]: 234 nM
EC50 [7, 49]: 162 nM
Structure (SMILES): c1cc2cc(c1)-c1cncc3[nH]c(nc13)-c1n[nH]c3ccc(cc13)-c1cncc(c1)CNC2 [Compound 54]
EC50 (all 50 cell lines): 453 nM

EC50 (BT-549): 277 nM
EC50 (CAMA1): 244 nM
EC50 (DU4475): 148 nM
EC50 (HCC1599): 154 nM
EC50 (MCF7): 942 nM
EC50 (MDA-MB-231-Luc): 462 nM
EC50 (T47D): 451 nM
EC50 (ZR-75-1): 440 nM
EC50 [1, 8]: 0.168 µM
EC50 [1, 9]: 0.252 µM
EC50 [1, 10]: 0.143 µM
EC50 [1, 11]: 0.193 µM
EC50 [1, 12]: 0.122 µM
EC50 [1, 13]: 0.339 µM
EC50 [2, 14]: 0.288 µM
EC50 [2, 15]: 0.081 µM
EC50 [2, 16]: 0.103 µM
EC50 [2, 17]: 0.292 µM
EC50 [2, 18]: 0.221 µM
EC50 [2, 19]: 0.137 µM
EC50 [2, 20]: 0.169 µM
EC50 [2, 21]: 0.125 µM
EC50 [2, 22]: 0.163 µM
EC50 [2, 23]: 0.206 µM
EC50 [2, 24]: 0.233 µM
EC50 [2, 25]: 0.316 µM
EC50 [2, 26]: 0.117 µM
EC50 [3, 27]: 123 nM
EC50 [3, 28]: 485 nM
EC50 [3, 29]: 613 nM
EC50 [4, 30]: 0.236 µM
EC50 [4, 31]: 0.308 µM
EC50 [4, 32]: 0.257 µM
EC50 [4, 33]: 0.19 µM
EC50 [5, 34]: 0.175 µM
EC50 [5, 35]: 0.147 µM
EC50 [5, 36]: 0.628 µM
EC50 [5, 37]: 0.073 µM
EC50 [6, 38]: 199 nM
EC50 [6, 39]: 269 nM
EC50 [6, 40]: 579 nM
EC50 [6, 41]: 159 nM
EC50 [6, 42]: 279 nM
EC50 [6, 43]: 514 nM
EC50 [6, 44]: 169 nM
EC50 [7, 45]: 360 nM
EC50 [7, 46]: 287 nM
EC50 [7, 47]: 218 nM
EC50 [7, 48]: 293 nM
EC50 [7, 49]: 770 nM
Structure (SMILES): Cc1ncc(C(=O)Nc2cc3nc(-c4cnc(C)n4C)ccc3cn2)s1 [Compound 82]
EC50 (all 50 cell lines): 282 nM
